Columns and labels:
[1] = tested on: soybean plants; assay: Accelerated aging test of seeds harvested from treated soybean plants; type: in vivo
Method: Another germination test, the accelerated aging test (AA), estimates the carryover potential of a seed lot in warehouse storage. The seeds are exposed to high temperatures and high relative humidity for short periods of time that cause seed deterioration. Seeds are suspended over water in a chamber for a period of time, for example 72 hours (wheat and soybeans) or 96 hours (corn), then tested in a standard warm germination test. This test only is usually used on seed whose longevity was in question.
(§1) In the method of the present invention, seeds harvested from plants treated with a foliar insecticide, or seeds harvested from plants whose pre-planted seeds were treated with a seed treatment insecticide, or seeds harvested from plants that underwent both treatments, both as the pre-planted seed (seed treatment) and as the post emergent plant (foliar insecticide treatment) were tested in warm germination and accelerated aging tests to determine the health and quality of the harvested seeds. In accordance with the germination tests, it was discovered that seed-producing plants resulting from the growers' application of insecticides at the seed stage, the foliar stage, and both, not only were healthier plants, but they also produced healthier seeds.
(§2) Germination studies were conducted on soybean plants comparing plants treated with a combination of fungicides with plants (1) wherein only insecticidal seed treatment was applied; (2) wherein insecticidal seed treatment was applied followed by foliar insecticidal treatment on the resulting plant; and (3) wherein only foliar insecticide was applied to a plant grown from untreated seed.

[2] = tested on: soybean plants; assay: Warm germination test of seeds harvested from treated soybean plants; type: in vivo
Excerpt: A preferred test of seed germination is a warm germination test because it is used for labeling purposes. Germination is defined as: “the emergence and development from the seed embryo of those essential structures which are indicative of the ability to produce a normal plant under favorable conditions.” The warm germination test reflects the stand producing potential of a seed lot under ideal planting conditions. In a typical warm germination test, 400 seeds from each seed lot are placed under moist conditions on blotters, rolled towels, or sand and maintained at 77° F. for about seven days. At the end of this period the seedlings are categorized as normal, abnormal, or diseased, and dead or hard seeds. The percentage germination is calculated from the number of normal seedlings from the total number of seeds evaluated.
as §1, §2

[3] = insecticidal seed treatment only, 30 g
[4] = insecticidal seed treatment only, 50 g
[5] = foliar insecticide only (2 applications), untreated seed

| SMILES | Accelerated Aging (+/−Std. Error) [1, 3] | Accelerated Aging (+/−Std. Error) [1, 4] | Warm Germination (+/−Std. Error) [2, 3] | Warm Germination (+/−Std. Error) [2, 4] | Accelerated Aging (+/−Std. Error) [1, 5] | Accelerated Aging (+/−Std. Error) ([1]; foliar insecticide only (8/8)) | Accelerated Aging (+/−Std. Error) ([1]; foliar insecticide only (8/12)) | Warm Germination (+/−Std. Error) [2, 5] | Warm Germination (+/−Std. Error) ([2]; foliar insecticide only (8/8)) | Warm Germination (+/−Std. Error) ([2]; foliar insecticide only (8/12)) |
| --- | --- | --- | --- | --- | --- | --- | --- | --- | --- | --- |
| CN1COCN(Cc2cnc(Cl)s2)/C1=N\[N+](=O)[O-] [Thiamethoxam, thiamethoxam] | 86.7 (0.95) | 90.4 (0.98) | 91.4 (0.63) | 91.6 (0.65) |  |  |  |  |  |  |
| CC1(C)[C@H](C(=O)O[C@H](C#N)c2cccc(Oc3ccccc3)c2)[C@@H]1/C=C(\Cl)C(F)(F)F (racemic) [lambda cyhalothrin] |  |  |  |  | 89.3 (1.06) | 89.7 (1.23) | 86.5 (1.23) | 92.5 (0.70) | 92.9 (0.81) | 91.1 (0.81) |
